Assay results reported in patent publication US20090093446A1, “METHOD FOR ALLEVIATING KERATOCONJUNCTIVITIS SICCA” (priority 2007, published 2009).

Key:
Assay type in all cases: in vivo, human
[1] = test system: patients with vasomotor rhinitis (non-allergic rhinitis); test: double-blind placebo-controlled 2 week evaluation of civamide nasal spray in vasomotor rhinitis; conditions: 0.01% by weight civamide nasal spray, 2 weeks
Description: Fifty-five (55) patients with vasomotor rhinitis (non-allergic rhinitis) participated in a double-blind placebo-controlled 2 week evaluation of the symptomatic relief afforded patients by 0.01% by weight civamide nasal spray or placebo nasal spray (vehicle for active product). Thirty-one percent (31%) of patients using 0.01% civamide spray reported increased tearing, while 0% of patients on placebo noted such a side effect.

[2] = test system: episodic cluster headache patients; test: civamide nasal spray versus inactive control in episodic cluster headache; conditions: 0.01% by weight civamide nasal spray twice daily, 36 patients
[3] = test system: patients with episodic cluster headache; test: civamide nasal drops in episodic cluster headache; conditions: 0.025% by weight civamide nasal drops once daily for 1 week, 9 of 18 patients
Description: In a study utilizing 0.025% by weight civamide nasal drops administered once daily for 1 week to 28 patients with episodic cluster headache (a severe form of vasomotor headache that occurs in general 4-24 week clusters), 9 of 18 patients (50%) on civamide nasal drops had increased tearing versus 0 of 10 patients (0%) on vehicle control.

normal volunteers = test: multi-dose 14 day tolerance study of civamide nasal spray; conditions: 14 days, 10 normal volunteers
[4] = test system: patients with migraine headache; test: capsaicin cream applied to nasal mucosa in migraine headache; conditions: 0.025% by weight capsaicin cream to nasal mucosa
[5] = test system: patients with migraine headache disorder; test: intranasal capsaicin cream for acute migraine pain, two patients; conditions: 0.025% by weight capsaicin cream intranasally, both of two migraine patients
Protocol: Two patients with migraine headache disorder were administered 0.025% by weight capsaicin cream intranasally for acute relief of their migraine pain. Both reported increased lacrimation within 30 minutes of application of the capsaicin cream.

| SMILES | patients who reported increased tearing [1] | patients who reported increased tearing [2] | patients who had increased tearing [3] | subjects who experienced increased lacrimation (tear production) (normal volunteers; 0.0075% by weight civamide nasal spray twice daily) | subjects who experienced increased lacrimation (tear production) (normal volunteers; 0.01% by weight civamide nasal spray twice daily) | subjects who experienced increased tearing (normal volunteers; […] by weight civamide nasal spray once daily) | patients who reported increased tearing as a side effect [4] | patients who noted some relief of their headaches ([4]; 4 hours after administration) | time to reported increased lacrimation after application [5] |
| --- | --- | --- | --- | --- | --- | --- | --- | --- | --- |
| COc1cc(CNC(=O)CCCC/C=C\C(C)C)ccc1O [civamide, cis-8-methyl-N-vanillyle-nonenamide] | 31% | 51% | 50% | 100% | 100% | 90% | – | – | – |
| COc1cc(CNC(=O)CCCC/C=C/C(C)C)ccc1O [capsaicin] | – | – | – | – | – | – | 44% | 73% | ≤ 30 min |
